For the data set, the system named is Dkk1-LRP5-TCF-Luciferase. Kind of data set: Functional Dkk1-LRP5-TCF-Luciferase Assay in U2OS Cells. Particulars: for fold induction at 2 µM / fold induction at 20 µM / EC50: Homo sapiens, U2OS; for fold induction at 2 µM: read-out: B = TCF ACTIVITY/DMSO CONTROL Fold induction @ 2.0 uM, 2.0 uM compound; for fold induction at 20 µM: read-out: C = TCF ACTIVITY/DMSO CONTROL Fold induction @ 20.0 uM, 20.0 uM compound; for A = MAX FOLD Induction/DMSO CONTROL: maximum fold induction over DMSO control.

Results on 36 compounds are retold here after patent US20090054392A1, “NAPHTHYLPYRIMIDINE, NAPHTHYLPYRAZINE AND NAPHTHYLPYRIDAZINE ANALOGS AND THEIR USE AS AGONISTS OF THE WNT-BETA-CATENIN CELLULAR MESSAGING SYSTEM” (Wyeth, priority 2007, published 2009).

As to `CS(=O)(=O)NCC1CCN(c2nccc(-c3ccc4ccccc4c3)n2)CC1` [N-({1-[4-(2-naphthyl)pyrimidin-2-yl]piperidin-4-yl}methyl)methanesulfonamide], the fold induction at 2 µM was 1.12 and the fold induction at 20 µM was found to be 0.48.

`c1cnc(NCC2CCN(c3nccc(-c4ccc5ccccc5c4)n3)CC2)nc1` [N-({1-[4-(2-naphthyl)pyrimidin-2-yl]piperidin-4-yl}methyl)pyrimidin-2-amine]: the fold induction at 2 µM is 1.28 and the fold induction at 20 µM was found to be 1.48.

For `O=C(NCC1CCN(c2nccc(-c3ccc4ccccc4c3)n2)CC1)N1CCCC1` [N-({1-[4-(2-naphthyl)pyrimidin-2-yl]piperidin-4-yl}methyl)pyrrolidine-1-carboxamide], the fold induction at 2 µM turned out to be 0.91 and the fold induction at 20 µM was found to be 1.13.

Consider `NC(=O)NCC1CCN(c2nccc(-c3ccc4ccccc4c3)n2)CC1` [N-({1-[4-(2-naphthyl)pyrimidin-2-yl]piperidin-4-yl}methyl)urea], for which the fold induction at 2 µM worked out at 1.29 and the fold induction at 20 µM amounted to 1.18.

Turning to `CC(=O)NCC1CCN(c2nccc(-c3ccc4ccccc4c3)n2)C1` (stereo not shown) [N-({1-[4-(2-naphthyl)pyrimidin-2-yl]pyrrolidin-3-yl}methyl)acetamide], the fold induction at 2 µM amounted to 0.95 and the fold induction at 20 µM amounted to 1.5.

For the compound `O=C(NCC1CCN(c2nccc(-c3ccc4ccccc4c3)n2)C1)c1ccccc1` (stereo not shown) [N-({1-[4-(2-naphthyl)pyrimidin-2-yl]pyrrolidin-3-yl}methyl)benzamide], the fold induction at 2 µM stood at 1.06 and the fold induction at 20 µM was determined as 1.03.

As for `O=CNCC1CCN(c2nccc(-c3ccc4ccccc4c3)n2)C1` (stereo not shown) [N-({1-[4-(2-naphthyl)pyrimidin-2-yl]pyrrolidin-3-yl}methyl)formamide], the fold induction at 2 µM came to 1.09 and the fold induction at 20 µM was determined as 1.68.

Consider `CS(=O)(=O)NCC1CCN(c2nccc(-c3ccc4ccccc4c3)n2)C1` (stereo not shown) [N-({1-[4-(2-naphthyl)pyrimidin-2-yl]pyrrolidin-3-yl}methyl)methanesulfonamide], for which the fold induction at 2 µM stood at 0.88 and the fold induction at 20 µM amounted to 1.63.

Take `NC(=O)NCC1CCN(c2nccc(-c3ccc4ccccc4c3)n2)C1` (stereo not shown) [N-({1-[4-(2-naphthyl)pyrimidin-2-yl]pyrrolidin-3-yl}methyl)urea]: the concentration for a half-maximal effect (EC50) is 19.4 µM, the fold induction at 2 µM was 1.14, the fold induction at 20 µM was 2.34 and the “A = MAX FOLD Induction/DMSO CONTROL” value is recorded as 1.720 fold.

As to `Cc1ccc(S(=O)(=O)N2CC(CNc3nccc(-c4ccc5ccccc5c4)n3)C2)cc1` [N-({1-[(4-methylphenyl)sulfonyl]azetidin-3-yl}methyl)-4-(2-naphthyl)pyrimidin-2-amine], the fold induction at 2 µM is 1.45 and the fold induction at 20 µM was 1.2.

Consider `Cc1ccc(S(=O)(=O)N2CCC(CNc3nccc(-c4ccc5ccccc5c4)n3)CC2)cc1` [N-({1-[(4-methylphenyl)sulfonyl]piperidin-4-yl}methyl)-4-(2-naphthyl)pyrimidin-2-amine], for which the fold induction at 2 µM came to 1.17 and the fold induction at 20 µM was found to be 0.92.

For `CS(=O)(=O)N1CCC(Nc2nccc(-c3ccc4ccccc4c3)n2)CC1` [N-[1-(methylsulfonyl)piperidin-4-yl]-4-(2-naphthyl)pyrimidin-2-amine], the EC50 is 0.06 µM, the fold induction at 2 µM came to 2.24, the fold induction at 20 µM turned out to be 1.54 and the “A = MAX FOLD Induction/DMSO CONTROL” value stood at 1.730 fold.

Take `O=C(N1CCOCC1)N1CCC(Nc2nccc(-c3ccc4ccccc4c3)n2)CC1` [N-[1-(morpholin-4-ylcarbonyl)piperidin-4-yl]-4-(2-naphthyl)pyrimidin-2-amine]: the fold induction at 2 µM came out at 1.03 and the fold induction at 20 µM was 1.07.

On to `c1ccc2cc(-c3ccnc(NC4CCCNCC4)n3)ccc2c1` (stereo not shown) [N-[4-(2-naphthyl)pyrimidin-2-yl]azepan-4-amine], for which the concentration for a half-maximal effect (EC50) is 16.1 µM, the fold induction at 2 µM stood at 1.11, the fold induction at 20 µM came out at 4.87 and the “A = MAX FOLD Induction/DMSO CONTROL” value was 6.080 fold.

For `CC(=O)N1CC(CNc2nccc(-c3ccc4ccccc4c3)n2)C1` [N-[(1-acetylazetidin-3-yl)methyl]-4-(2-naphthyl)pyrimidin-2-amine], the fold induction at 2 µM came to 1.8.

With `CC(=O)N1CCC(CNc2nccc(-c3ccc4ccccc4c3)n2)CC1` [N-[(1-acetylpiperidin-4-yl)methyl]-4-(2-naphthyl)pyrimidin-2-amine], the fold induction at 2 µM was 1.02 and the fold induction at 20 µM turned out to be 1.33.

Consider `O=C(c1ccccc1)N1CC(CNc2nccc(-c3ccc4ccccc4c3)n2)C1` [N-[(1-benzoylazetidin-3-yl)methyl]-4-(2-naphthyl)pyrimidin-2-amine], for which the fold induction at 2 µM is 1.5.

Take `O=C(c1ccccc1)N1CCC(CNc2nccc(-c3ccc4ccccc4c3)n2)CC1` [N-[(1-benzoylpiperidin-4-yl)methyl]-4-(2-naphthyl)pyrimidin-2-amine]: the fold induction at 2 µM was found to be 1.44 and the fold induction at 20 µM came to 0.627.

For `c1ccc(CN2CCC(CNc3nccc(-c4ccc5ccccc5c4)n3)CC2)cc1` [N-[(1-benzylpiperidin-4-yl)methyl]-4-(2-naphthyl)pyrimidin-2-amine], the fold induction at 20 µM is 1.49.

Regarding `CCN1CCC(CNc2nccc(-c3ccc4ccccc4c3)n2)CC1` [N-[(1-ethylpiperidin-4-yl)methyl]-4-(2-naphthyl)pyrimidin-2-amine], the half-maximal effective concentration (EC50) was determined as 3.94 µM, the fold induction at 2 µM was 1.5, the fold induction at 20 µM stood at 0.908 and the “A = MAX FOLD Induction/DMSO CONTROL” value was determined as 3.450 fold.

Consider `CS(=O)(=O)N1CC[C@@H](Nc2nccc(-c3ccc4ccccc4c3)n2)C1` [N-[(3R)-1-(methylsulfonyl)pyrrolidin-3-yl]-4-(2-naphthyl)pyrimidin-2-amine], for which the EC50 amounted to 3.55 µM, the fold induction at 20 µM amounted to 3.46 and the “A = MAX FOLD Induction/DMSO CONTROL” value is listed as 3.380 fold.

`O=C(N1CCOCC1)N1CC[C@@H](Nc2nccc(-c3ccc4ccccc4c3)n2)C1` [N-[(3R)-1-(morpholin-4-ylcarbonyl)pyrrolidin-3-yl]-4-(2-naphthyl)pyrimidin-2-amine]: the fold induction at 20 µM worked out at 2.35 and the “A = MAX FOLD Induction/DMSO CONTROL” value is 1.340 fold.

Turning to `CC(=O)N1CC[C@@H](Nc2nccc(-c3ccc4ccccc4c3)n2)C1` [N-[(3R)-1-acetylpyrrolidin-3-yl]-4-(2-naphthyl)pyrimidin-2-amine], the EC50 stood at 14.2 µM, the fold induction at 2 µM was found to be 1.21, the fold induction at 20 µM is 2.06 and the “A = MAX FOLD Induction/DMSO CONTROL” value was 2.980 fold.

As for `O=C(c1ccccc1)N1CC[C@@H](Nc2nccc(-c3ccc4ccccc4c3)n2)C1` [N-[(3R)-1-benzoylpyrrolidin-3-yl]-4-(2-naphthyl)pyrimidin-2-amine], the fold induction at 2 µM was 1.84.

Turning to `CS(=O)(=O)N1CC[C@H](Nc2nccc(-c3ccc4ccccc4c3)n2)C1` [N-[(3S)-1-(methylsulfonyl)pyrrolidin-3-yl]-4-(2-naphthyl)pyrimidin-2-amine], the midpoint of the response, the EC50, lay at 2.9 µM; the fold induction at 2 µM came to 1.41; the fold induction at 20 µM turned out to be 2.26; the “A = MAX FOLD Induction/DMSO CONTROL” value was found to be 2.585 fold.

As to `O=C(N1CCOCC1)N1CC[C@H](Nc2nccc(-c3ccc4ccccc4c3)n2)C1` [N-[(3S)-1-(morpholin-4-ylcarbonyl)pyrrolidin-3-yl]-4-(2-naphthyl)pyrimidin-2-amine], the fold induction at 2 µM came out at 1.12 and the fold induction at 20 µM worked out at 1.94.

Turning to `CC(=O)N1CC[C@H](Nc2nccc(-c3ccc4ccccc4c3)n2)C1` [N-[(3S)-1-acetylpyrrolidin-3-yl]-4-(2-naphthyl)pyrimidin-2-amine], the fold induction at 2 µM is 1.15 and the fold induction at 20 µM was 1.66.

For the compound `O=C(c1ccccc1)N1CC[C@H](Nc2nccc(-c3ccc4ccccc4c3)n2)C1` [N-[(3S)-1-benzoylpyrrolidin-3-yl]-4-(2-naphthyl)pyrimidin-2-amine], the fold induction at 2 µM amounted to 1.23.

As to `CN(c1nccc(-c2ccc3ccccc3c2)n1)[C@H]1CC[C@@H](CN)CC1` [N-[cis-4-(aminomethyl)cyclohexyl]-N-methyl-4-(2-naphthyl)pyrimidin-2-amine], the fold induction at 2 µM was 2.7.

For the compound `CN(c1nccc(-c2ccc3ccccc3c2)n1)[C@H]1CC[C@H](CN)CC1` [N-[trans-4-(aminomethyl)cyclohexyl]-N-methyl-4-(2-naphthyl)pyrimidin-2-amine], the fold induction at 2 µM stood at 1.4.

As to `c1ccc(CNc2nccc(-c3ccc4ccccc4c3)n2)cc1` [N-benzyl-4-(2-naphthyl)pyrimidin-2-amine], the fold induction at 2 µM is 1.71.

In the case of `CN(CCN(C)[C@@H]1CCN(c2nccc(-c3ccc4ccccc4c3)n2)C1)Cc1ccccc1` [N-benzyl-N,N′-dimethyl-N′-{(3R)-1-[4-(2-naphthyl)pyrimidin-2-yl]pyrrolidin-3-yl}ethane-1,2-diamine], the fold induction at 2 µM came to 1.6.

On to `CCCCNc1nccc(-c2ccc3ccccc3c2)n1` [N-butyl-4-(2-naphthyl)pyrimidin-2-amine], for which the fold induction at 2 µM worked out at 1.51.

With `c1ccc2cc(-c3ccnc(NC4CCCCC4)n3)ccc2c1` [N-cyclohexyl-4-(2-naphthyl)pyrimidin-2-amine], the fold induction at 2 µM turned out to be 1.21, the fold induction at 20 µM is 1.51 and the “A = MAX FOLD Induction/DMSO CONTROL” value was found to be 1.230 fold.

Turning to `O=C(NC1CCCCC1)N1CCC(CNc2nccc(-c3ccc4ccccc4c3)n2)CC1` [N-cyclohexyl-4-({[4-(2-naphthyl)pyrimidin-2-yl]amino}methyl)piperidine-1-carboxamide], the fold induction at 2 µM amounted to 1.81, the fold induction at 20 µM turned out to be 0.067 and the “A = MAX FOLD Induction/DMSO CONTROL” value amounted to 1.230 fold.

For `O=C(NC1CCCCC1)N1CCC(Nc2nccc(-c3ccc4ccccc4c3)n2)CC1` [N-cyclohexyl-4-{[4-(2-naphthyl)pyrimidin-2-yl]amino}piperidine-1-carboxamide], the fold induction at 20 µM was 1.45.
